Assay: Relative quantum yield determination for labeled nucleotides
Assay type: physicochemical
Text: […] The concentration of this solution is matched with that of a solution of Compound 2 in the same solvent by matching the optical density (OD) at the absorption wavelength maximum, which is 504 nm for both samples.

[1] = in methanol, relative to reference fluorophore
[2] = pH 9 phosphate buffer, OD matched at absorption maximum, excited at λmax, reference 4,4-difluoro-5,7-dimethyl-4-bora-3a,4a-diaza-s-indacene-3-propionic acid
[3] = pH 9 phosphate buffer, relative to reference fluorophore

## Cc1cc(C)n2c1C=C1C=CC(CNC(=O)CSP(=O)(O)OP(=O)(O)OP(=O)(O)OC[C@H]3O[C@@H](n4cnc5c(=O)[nH]c(N)nc54)[C@H](O)[C@@H]3O)=[N+]1[B-]2(F)F [Compound 2]
[1]
  fluorescence quenched: 41%
  fluorescence yield relative to reference fluorophore: 59%
[2]
  fluorescence yield relative to reference fluorophore: 11%
[3]
  fluorescence quenched: 89%

## Nc1nc2c(ncn2[C@@H]2O[C@H](COP(=O)(O)OP(=O)(O)OP(=O)(O)SCC(=O)NCCCCCNC(=O)COc3ccc(C4=[N+]5C(=Cc6ccc(-c7cccs7)n6[B-]5(F)F)C=C4)cc3)[C@@H](O)[C@H]2O)c(=O)[nH]1 [Compound 4]
[1]
  fluorescence quenched: 25%
  fluorescence yield relative to reference fluorophore: 75%
[2]
  fluorescence yield relative to reference fluorophore: 9.1%
[3]
  fluorescence quenched: 90.9%
